According to ChEMBL document CHEMBL1122587 (J Med Chem, 1984):
Numbered stars: 1 amine (or outer) side, 2 acyl side, 3 side chain; on linkers, the order of the positions; unused ones are H or OH. Bridge positions count the residues as written; N and C are the ends. Square brackets hold non-standard residues; d marks the D form. Peptide text beside a SMILES is read from it. I, II: the chains in the order shown. Actinocin(9to1) = Cc1c2oc3c(C)ccc(C(=O)[*:1])c3nc-2c(C(=O)[*:2])c(N)c1=O; NMeV = CN[C@H](C(=O)O)C(C)C; Sar = CNCC(=O)O

Legend:
Type in all cases: physicochemical
[1] = Partition coefficient (logP); details: octanol/water
[2] = log P value was reported at a pH 2.0; details: buffer
[3] = Partition coefficient (logD) (0.1 N NaOH)

Row | Compound | logP ([1]; read-out: logP) | also measured
1 | Cc1c2oc3c(C)ccc(C(=O)N[C@@H]4C(=O)N[C@H](C(C)C)C(=O)N5CCC[C@H]5C(=O)N(C)CC(=O)N(C)[C@@H](C(C)C)C(=O)O[C@@H]4C)c3nc-2c(C(=O)N[C@@H]2C(=O)N[C@H](C(C)C)C(=O)N3CCC[C@H]3C(=O)N(C)CC(=O)N(C)[C@@H](C(C)C)C(=O)O[C@@H]2C)c(N)c1=O [DACTINOMYCIN] (I: T[dV]P[Sar][NMeV] / II: T[dV]P[Sar][NMeV]; ester I:1-I:C, II:1-II:C; linker I:N-II:N via Actinocin(9to1)) | 3.21 | 
2 | COc1cccc2c1C(=O)c1c(O)c3c(c(O)c1C2=O)C[C@@](O)(C(C)=O)C[C@@H]3O[C@H]1C[C@H](N)[C@H](O)[C@H](C)O1 [DAUNORUBICIN] | 0.66 | 
3 | COc1cccc2c1C(=O)c1c(O)c3c(c(O)c1C2=O)C[C@@](O)(C(=O)CO)C[C@@H]3O[C@H]1C[C@H](N)[C@H](O)[C@H](C)O1 [DOXORUBICIN] | 0.1 | 
4 | NC(=O)NO [HYDROXYUREA] | -1.8 | 
5 | CN(Cc1cnc2nc(N)nc(N)c2n1)c1ccc(C(=O)N[C@@H](CCC(=O)O)C(=O)O)cc1 [METHOTREXATE] |  | logD [2]: -2.59
6 | CO[C@@]12[C@H](COC(N)=O)C3=C(C(=O)C(C)=C(N)C3=O)N1C[C@@H]1N[C@@H]12 [MITOMYCIN] |  | logP [1]: -0.47
7 | COc1ccc(OC)c(Cc2cnc3nc(N)nc(N)c3c2C)c1 [PIRITREXIM] |  | logD ([3]; 0.1 N NaOH, read-out: logD): 2.13
8 | COc1ccc(C[C@H](N)C(=O)N[C@H]2[C@@H](O)[C@H](n3cnc4c(N(C)C)ncnc43)O[C@@H]2CO)cc1 [PUROMYCIN] | 0.03 | 
9 | COCCOc1c(OC)cc(Cc2cnc(N)nc2N)cc1OC [TETROXOPRIM] |  | logD ([3]; octanol/water): 0.6
10 | CISPLATIN |  | logP [1]: -1.45
